Columns and labels:
[1] = test system: FaDu sphere cultures; test: qPCR cancer stem cell array in FaDu sphere cultures; assay type: cell-based; set-up: % Change ATM / % Change MERTK / % Change NOTCH2 / % Change LATS1 / % Change ITGA2 / % Change SMO / % Change TGFBR1 / % Change MAML1 / % Change WWC1 / % Change ITGA6 / % Change ITGB1 / % Change AXL / % Change KITLG / % Change JAK2 / % Change YAP1 / % Change BMI1 / % Change NOTCH1 / % Change ATXN1 / % Change ERBB2 / % Change SIRT1 / % Change WEE1 / % Change FGFR2 / % Change DDR1 / % Change GSK3B / % Change ENG / % Change DACH1 / % Change ALCAM / % Change HDAC1 / % Change CD44 / % Change HPRT1 / % Change IKBKB / % Change DNMT1 / % Change ETFA / % Change FOXP1 / % Change FLOT2 / % Change CHEK1 / % Change MUC1 / % Change CD24 / % Change NFKB1 / % Change NANOG / % Change ACTB / % Change EPCAM / % Change STAT3 / % Change TWIST2 / % Change PLAUR / % Change EGF / % Change ALDH1A1 / % Change RPLP0 / % Change TAZ / % Change JAG1 / % Change KLF17 / % Change ID1 / % Change ITGA4 / % Change IL8 / % Change MYC / % Change CD34 / % Change LIN28A / % Change POU5F1 / % Change PECAM1: dose or concentration left out as unconfirmed; conditions: 6 hours, normalized to GAPDH
Experimental: The changes in gene expression following treatment with BBI608 were analyzed. FaDu sphere cultures were treated for 6 hours with DMSO (control) or BBI608 at […]. Total RNA was isolated, reversed transcribed and the generated cDNA was analyzed using a qPCR cancer stem cell array. Data was normalized to the expression of the house keeping gene, GAPDH.

[2] = test system: PD-L1; test: PD-L1 staining of B16F10 melanoma cells in a murine xenograft model; conditions: in vivo

Compound: CC(=O)c1cc2c(o1)C(=O)c1ccccc1C2=O [BBI608, 2-acetylnaphtho[2,3-b]furan-4,9-dione]
- % Change ACTB ([1]; gene ACTB): −24.49%
- % Change ALCAM ([1]; gene ALCAM): −36.13%
- % Change ALDH1A1 ([1]; gene ALDH1A1): −18.18%
- % Change ATM ([1]; gene ATM): −68.65%
- % Change ATXN1 ([1]; gene ATXN1): −45.26%
- % Change AXL ([1]; gene AXL): −48.50%
- % Change B2M ([1]; gene B2M): −27.69%
- % Change BMI1 ([1]; gene BMI1): −47.40%
- % Change CD24 ([1]; gene CD24): −26.46%
- % Change CD34 ([1]; gene CD34): −88.18%
- % Change CD44 ([1]; gene CD44): −35.44%
- % Change CHEK1 ([1]; gene CHEK1): −28.88%
- % Change DACH1 ([1]; gene DACH1): −36.55%
- % Change DDR1 ([1]; gene DDR1): −38.59%
- % Change DNMT1 ([1]; gene DNMT1): −32.09%
- % Change EGF ([1]; gene EGF): −19.07%
- % Change ENG ([1]; gene ENG): −37.62%
- % Change EPCAM ([1]; gene EPCAM): −22.87%
- % Change ERBB2 ([1]; gene ERBB2): −43.81%
- % Change ETFA ([1]; gene ETFA): −31.12%
- % Change FGFR2 ([1]; gene FGFR2): −41.18%
- % Change FLOT2 ([1]; gene FLOT2): −29.19%
- % Change FOXP1 ([1]; gene FOXP1): −29.76%
- % Change GSK3B ([1]; gene GSK3B): −38.06%
- % Change HDAC1 ([1]; gene HDAC1): −36.10%
- % Change HPRT1 ([1]; gene HPRT1): −33.81%
- % Change ID1 ([1]; gene ID1): −12.68%
- % Change IKBKB ([1]; gene IKBKB): −32.11%
- % Change IL8 ([1]; gene IL8): −7.62%
- % Change ITGA2 ([1]; gene ITGA2): −60.71%
- % Change ITGA4 ([1]; gene ITGA4): −11.52%
- % Change ITGA6 ([1]; gene ITGA6): −54.63%
- % Change ITGB1 ([1]; gene ITGB1): −50.45%
- % Change JAG1 ([1]; gene JAG1): −14.24%
- % Change JAK2 ([1]; gene JAK2): −47.94%
- % Change KITLG ([1]; gene KITLG): −47.99%
- % Change KLF17 ([1]; gene KLF17): −90.18%
- % Change LATS1 ([1]; gene LATS1): −60.75%
- % Change LIN28A ([1]; gene LIN28A): −87.52%
- % Change MAML1 ([1]; gene MAML1): −52.82%
- % Change MERTK ([1]; gene MERTK): −65.78%
- % Change MUC1 ([1]; gene MUC1): −27.42%
- % Change MYC ([1]; gene MYC): −3.91%
- % Change NANOG ([1]; gene NANOG): −93.34%
- % Change NFKB1 ([1]; gene NFKB1): −25.54%
- % Change NOTCH1 ([1]; gene NOTCH1): −46.24%
- % Change NOTCH2 ([1]; gene NOTCH2): −64.37%
- % Change PECAM1 ([1]; gene PECAM1): −70.26%
- % Change PLAUR ([1]; gene PLAUR): −20.64%
- % Change POU5F1 ([1]; gene POU5F1): −77.31%
- % Change RPLP0 ([1]; gene RPLP0): −17.48%
- % Change SIRT1 ([1]; gene SIRT1): −43.35%
- % Change SMO ([1]; gene SMO): −55.56%
- % Change STAT3 ([1]; gene STAT3): −22.87%
- % Change TAZ ([1]; gene TAZ): −15.09%
- % Change TGFBR1 ([1]; gene TGFBR1): −53.34%
- % Change TWIST2 ([1]; gene TWIST2): −21.59%
- % Change WEE1 ([1]; gene WEE1): −42.86%
- % Change WWC1 ([1]; gene WWC1): −51.64%
- % Change YAP1 ([1]; gene YAP1): −47.45%
- PD-L1 expression staining [2]: down-regulation

From patent US20180140572A1, “COMPOSITIONS COMPRISING A CANCER STEMNESS INHIBITOR AND AN IMMUNOTHERAPEUTIC AGENT FOR USE IN TREATING CANCER” (Boston Biomedical, Inc., priority 2015, published 2018)
